Laboratory results: ChEMBL document CHEMBL1122289

Tests used:
[1] = biological target: T1, Progesterone receptor (Oryctolagus cuniculus) (UniProt P06186); assay: Relative binding affinity for progesterone receptor
T1 sequence (whole entry): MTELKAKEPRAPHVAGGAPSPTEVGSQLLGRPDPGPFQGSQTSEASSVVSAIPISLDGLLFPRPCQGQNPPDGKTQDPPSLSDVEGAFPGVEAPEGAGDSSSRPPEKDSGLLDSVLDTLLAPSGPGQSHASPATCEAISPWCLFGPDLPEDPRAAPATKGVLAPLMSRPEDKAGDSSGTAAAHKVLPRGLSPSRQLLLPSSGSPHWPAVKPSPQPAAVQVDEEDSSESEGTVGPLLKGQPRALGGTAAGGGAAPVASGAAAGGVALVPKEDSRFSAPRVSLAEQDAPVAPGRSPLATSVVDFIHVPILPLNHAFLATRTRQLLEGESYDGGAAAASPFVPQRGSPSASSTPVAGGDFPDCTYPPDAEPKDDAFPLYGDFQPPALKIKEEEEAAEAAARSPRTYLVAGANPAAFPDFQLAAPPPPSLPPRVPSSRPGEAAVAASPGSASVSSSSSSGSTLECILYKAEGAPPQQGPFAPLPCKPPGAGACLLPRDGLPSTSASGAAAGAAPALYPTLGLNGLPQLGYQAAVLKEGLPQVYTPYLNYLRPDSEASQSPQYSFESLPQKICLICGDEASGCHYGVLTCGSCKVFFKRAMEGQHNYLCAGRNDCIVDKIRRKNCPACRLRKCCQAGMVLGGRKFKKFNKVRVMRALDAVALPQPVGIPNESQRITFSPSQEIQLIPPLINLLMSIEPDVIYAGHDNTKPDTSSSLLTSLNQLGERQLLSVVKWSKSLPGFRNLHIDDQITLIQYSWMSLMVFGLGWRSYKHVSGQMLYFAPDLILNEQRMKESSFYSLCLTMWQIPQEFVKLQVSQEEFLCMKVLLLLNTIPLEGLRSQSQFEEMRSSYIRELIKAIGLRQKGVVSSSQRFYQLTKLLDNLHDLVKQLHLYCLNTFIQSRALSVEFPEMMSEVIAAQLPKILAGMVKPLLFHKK

[2] = biological target: Estrogen receptor (Mus musculus) (UniProt O08537+P19785); assay: Relative binding affinity for estrogen receptor; type: protein assay
Chain of Estrogen receptor (Mus musculus) (O08537 whole entry, looked up): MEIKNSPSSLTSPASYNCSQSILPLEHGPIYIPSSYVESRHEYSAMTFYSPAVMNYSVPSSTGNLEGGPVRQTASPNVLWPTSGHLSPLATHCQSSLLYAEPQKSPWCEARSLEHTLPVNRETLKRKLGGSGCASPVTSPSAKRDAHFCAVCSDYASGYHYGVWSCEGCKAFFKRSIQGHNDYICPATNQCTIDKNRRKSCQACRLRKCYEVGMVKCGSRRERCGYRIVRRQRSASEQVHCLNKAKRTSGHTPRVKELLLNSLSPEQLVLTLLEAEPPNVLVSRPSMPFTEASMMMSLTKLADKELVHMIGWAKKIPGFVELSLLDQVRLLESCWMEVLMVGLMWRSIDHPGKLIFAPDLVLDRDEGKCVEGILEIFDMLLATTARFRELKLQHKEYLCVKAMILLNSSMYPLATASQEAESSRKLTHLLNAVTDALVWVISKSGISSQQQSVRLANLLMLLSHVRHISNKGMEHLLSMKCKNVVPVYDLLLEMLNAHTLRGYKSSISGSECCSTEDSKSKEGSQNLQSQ
Chain of Estrogen receptor (Mus musculus) (P19785 whole entry, looked up): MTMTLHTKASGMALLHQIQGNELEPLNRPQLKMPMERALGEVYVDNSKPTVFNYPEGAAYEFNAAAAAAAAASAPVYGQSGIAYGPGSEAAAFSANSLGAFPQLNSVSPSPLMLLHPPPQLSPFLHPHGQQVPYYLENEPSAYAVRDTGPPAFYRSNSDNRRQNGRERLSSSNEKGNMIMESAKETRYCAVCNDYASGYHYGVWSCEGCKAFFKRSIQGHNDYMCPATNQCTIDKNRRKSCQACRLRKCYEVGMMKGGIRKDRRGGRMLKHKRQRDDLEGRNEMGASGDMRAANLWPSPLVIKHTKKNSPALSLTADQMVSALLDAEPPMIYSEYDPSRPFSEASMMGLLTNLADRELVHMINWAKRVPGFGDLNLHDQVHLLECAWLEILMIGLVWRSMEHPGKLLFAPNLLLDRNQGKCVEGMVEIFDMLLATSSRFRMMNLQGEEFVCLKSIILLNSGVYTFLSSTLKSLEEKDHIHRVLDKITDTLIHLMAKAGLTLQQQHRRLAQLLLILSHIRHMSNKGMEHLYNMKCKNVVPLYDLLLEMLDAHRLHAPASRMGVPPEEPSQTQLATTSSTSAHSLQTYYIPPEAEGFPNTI

Row | Compound | relative binding affinity (RBA) [1] | relative binding affinity (RBA) [2]
1 | CC(=O)[C@H]1CC[C@H]2[C@@H]3CCC4=CC(=O)CC[C@]4(C)[C@H]3CC[C@]12C | 100 | < 0.1
2 | CC(=O)[C@@]1([Se]c2ccccc2)CC[C@H]2[C@@H]3CCC4=CC(=O)CC[C@]4(C)[C@H]3CC[C@@]21C | 2.1 | < 0.1
3 | C[C@]12CC[C@H]3[C@@H](CCC4=CC(=O)CC[C@@]43C)[C@@H]1CC[C@@H]2C(=O)C[Se]c1ccccc1 | 59 | < 0.1
